Measured values: patent publication US9040715B2 (priority 2008, dated 2015)
Values after ≈ are worked out from the molar mass of the structure shown. Read-outs that look alike come from different tables or passages of the source.

Columns and labels:
Candida albicans (CAF-2) = experiment: Anti-fungal/anti-yeast activity: MIC50 (broth microdilution) and MFC; type: cell-based
Description: (§1) Fluconazole, an ergosterol inhibitor, and the beta-1,3-glucan inhibitor micafungin served as controls (See Tables 1-8).
(§2) The minimum inhibitory concentrations resulting in 50% growth inhibition (MIC50) of […] Candida species (C. albicans, C. tropicalis and C. glabrata, C. lusitaniae, C. parapsilosis, and C. apicola) as well as Aspergillus fumigatus to a set of novel synthetic compounds was determined in accordance with the guidelines in CLSI document M27-A2 (Clinical and Laboratory Standards Institute; Wayne, Pa.). The total volume of cells and drug was 100 μL per microtiter well, and each drug was diluted in RPMI to achieve final concentrations of 0.2-100 μg/ml. Uninoculated cultures were used as a reference standard. Stock inoculum suspensions were prepared from 24 hour cultures on YPD (yeast extract/peptone/dextrose) media at 30° C. For MIC determinations, an inoculum of 1.0×10^3 cells of Candidia and 2.0×10^3 cells of Aspergillus per well were used, and cells in diluted drugs were prepared in RPMI-1640 medium. MICs were determined both visually and spectrophotometrically at 24 hours and 48 h at 550 nm using a micro plate reader. The MIC50 endpoint was measured as the lowest drug concentration resulting in a reduction of growth of 50% or more compared with growth of the control.
(§3) The minimum fungicidal concentrations (MFCs) were determined for each drug-isolate-medium combination as follows. After 48 hours of incubation, 100 μL of each drug-isolate-medium combination (2 plates) was subcultured onto YPD plates (100 μL of solution was spread over the YPD plate). […] The plates were then incubated at 30° C. for 48 hours.
(§4) The in vitro fungicidal activities (MFCs) were determined for each drug-isolate-medium combination as follows. After 48 hours of incubation, 10 μL each drug-isolate-medium combination was spotted onto YPD plates (10 μL of each well is spotted sequentially with positive and negative control wells). […] The plates were then incubated at 30° C. for 48 hours.

Candida apicola = experiment: as above; type: cell-based
Description: as §1, §2, §3, §4

Candida glabrata = experiment: as above; type: cell-based
Description: as §1, §2, §3, §4

Candida lusitaniae = experiment: as above; type: cell-based
Description: as §1, §2, §3, §4

Candida tropicalis = experiment: as above; type: cell-based
Description: as §1, §2, §3, §4

Candidia parapsilosis = experiment: as above; type: cell-based
Description: as §1, §2, §3, §4

[1] = system: Saccharomyces cerevisiae (YPH501); experiment: as above; type: cell-based
Huh7 cells = experiment: Neutral red uptake assay (cytotoxicity); type: cell-based, human
From the text: The neutral red uptake assay is a cytotoxicity test that is based on the ability of viable cells to incorporate and bind the supra-vital dye neutral red in the lysosomes. This weakly cationic dye penetrates cell membranes by non-ionic passive diffusion and concentrates in the lysosomes, where it binds by electrostatic hydrophobic bonds to anionic and phosphate groups of the lysosomal matrix. The dye is then extracted from the viable cells using an acidified ethanol solution, and the absorbance of the solubilized dye is read. When the cell dies or the pH gradient is reduced, the dye is not retained and consequently, the amount of retained dye is proportional to the number of viable cells. Most primary cells and cell lines can be used for this method. The HepG2 and Huh7, two human hepatoma cell lines, were used for this study. The cells were seeded in 96-well tissue culture plates and treated for 48 hours with the compounds. The plates were then incubated for 2 hours with a medium containing neutral red. The cells were subsequently washed, the dye was extracted in each well, and the absorbance was read using a spectrophotometer (FIG. 3 and Table 11).

Huh7 or HepG2 cell line = experiment: MTT assay (cytotoxicity); type: cell-based, human; conditions: 24 hours and 48 hours
Description: The MTT assay is a colorimetric assay that measures the reduction of yellow 3-(4,5-dimethylhiazol-2-yl)-2,5-diphenyl tetrazolium bromide (MTT) by mitochondrial succinate dehydrogenase. The MTT enters the cells and passes into the mitochondria where it is reduced to an insoluble, dark purple, formazan product. The cells are then solubilized with an organic solvent (e.g., isopropanol) and the released, solubilized formazan reagent is measured spectrophotometrically. Since reduction of MTT can only occur in metabolically active cells, the level of activity is a measure of the viability of the cells.
Cells of the Huh7 or HepG2 cell line were seeded in a 96 well plate. The plate was incubated overnight at 37° C. in a humidified incubator, 5% CO2. The test compounds were added to the plate. Different concentrations of drug were tested in triplicate along with a negative control. The final volume was adjusted to 100 μl per well. The plate was incubated overnight at 37° C. in a humidified incubator, 5% CO2. After 24 hours and 48 hours, MTT reagent (5 mg/ml, 10 μl/100 μl per well of the 96 well plate) was added and incubated at 37° C. for 3 hours. After 3 hours, 100 μl of the DMSO solution was added to each well and the plate was rocked at room temperature for 1 hour. The plate was then read on a plate reader at […].

Aspergillus fumigatus = experiment: Anti-fungal/anti-yeast activity: MIC50 (broth microdilution) and MFC; type: cell-based
Description: as §1, §2, §3, §4

[2] = system: Fluconazole Resistant C. albicans; experiment: microbe, parasite or virus in culture; type: cell-based; conditions: Candida albicans, read-out: MIC50
Description: as §2
The MIC50 of Compounds I-1, I-2, and I-5 in several mutant strains of Candida albicans, including fluconazole resistant clinical strains, was determined according to the methods described in Example 1 (see Table 9). The activity of Compound I-1 against fluconazole resistant strains was further explored (see Table 10). In Table 10, Strain #1 is a fluconazole sensitive Candida albicans strain; Strain #17 is a fluconazole resistant Candida albicans strain; C. albicans CS#01 is a first clinical strain; C. albicans CS#02 is a second clinical strain.

[3] = Saccharomyces cerevisiae (YPH501)

SMILES: COc1ccc(CC(=O)NNC(=O)Cn2sc3ccccc3c2=O)cc1 [Compound I-6]
- Activity (fungicidal/fungistatic) (Candida albicans (CAF-2)): fungicidal (An MFC/MIC ratio of less than four indicates that the compound is fungicidal)
- MFC (Candida albicans (CAF-2)): 12.5 mg/L
- Ratio MFC/MIC (Candida albicans (CAF-2)): 1
- MIC (Candida albicans (CAF-2); read-out: MIC-50): 12.5 mg/L
- Activity (fungicidal/fungistatic) (Candida apicola; Candida apicola): fungicidal (An MFC/MIC ratio of less than four indicates that the compound is fungicidal)
- MIC-50 (Candida apicola; Candida apicola): 12.5 mg/L
- Ratio MFC/MIC (Candida apicola; Candida apicola): 1
- MFC (Candida apicola; Starmerella apicola): 12.5 mg/L
- Activity (fungicidal/fungistatic) (Candida glabrata; Candida glabrata): fungicidal (An MFC/MIC ratio of less than four indicates that the compound is fungicidal)
- Ratio MFC/MIC (Candida glabrata; Candida glabrata): 1
- MFC (Candida glabrata; Nakaseomyces glabratus): 12.5 mg/L
- MIC (Candida glabrata; Nakaseomyces glabratus, read-out: MIC-50): 12.5 mg/L
- Activity (fungicidal/fungistatic) (Candida lusitaniae; Candida lusitaniae): fungicidal (An MFC/MIC ratio of less than four indicates that the compound is fungicidal)
- Ratio MFC/MIC (Candida lusitaniae; Candida lusitaniae): 1
- MFC (Candida lusitaniae; Clavispora lusitaniae): 12.5 mg/L
- MIC (Candida lusitaniae; Clavispora lusitaniae, read-out: MIC-50): 12.5 mg/L
- Activity (fungicidal/fungistatic) (Candida tropicalis): fungicidal (An MFC/MIC ratio of less than four indicates that the compound is fungicidal)
- MFC (Candida tropicalis): 12.5 mg/L
- Ratio MFC/MIC (Candida tropicalis): 1
- MIC (Candida tropicalis; read-out: MIC-50): 12.5 mg/L
- MFC (Candidia parapsilosis): 12.5 mg/L
- Activity (fungicidal/fungistatic) (Candidia parapsilosis; Candidia parapsilosis): fungicidal (An MFC/MIC ratio of less than four indicates that the compound is fungicidal)
- Ratio MFC/MIC (Candidia parapsilosis; Candidia parapsilosis): 1
- MIC (Candidia parapsilosis; read-out: MIC-50): 12.5 mg/L
- MFC ([1]; Saccharomyces cerevisiae): 12.5 mg/L (≈ 33.7 µM)
- Activity (fungicidal/fungistatic) [1, 3]: fungicidal (An MFC/MIC ratio of less than four indicates that the compound is fungicidal)
- Ratio MFC/MIC [1, 3]: 1
- MIC ([1]; Saccharomyces cerevisiae, read-out: MIC-50): 12.5 mg/L (≈ 33.7 µM)
- Percentage Viability (Huh7 cells; 3.3 μg/mL (approx 1X MIC)): >100%
- Percentage Viability (Huh7 cells; 10 μg/mL (approx 3X MIC)): >100%
- Percentage Viability (Huh7 cells; 33 μg/mL (approx 10X MIC)): >100%
- Percentage Viability (Huh7 cells; 100 μg/mL (approx 30X MIC)): 67%
- Toxicity to mammalian cell lines (MTT assay) (Huh7 or HepG2 cell line): minimally toxic

SMILES: OC(Cn1cncn1)(Cn1cncn1)c1ccc(F)cc1F [Fluconazole, reference compound]
- Activity (fungicidal/fungistatic) (Aspergillus fumigatus): fungistatic (an MFC/MIC ratio of greater than four indicates that the compound is fungistatic)
- Ratio MFC/MIC (Aspergillus fumigatus): 7
- MFC (Aspergillus fumigatus; read-out: MFC): 200 mg/L
- MIC50 (Aspergillus fumigatus; read-out: MIC-50): 30 mg/L
- Activity (fungicidal/fungistatic) (Candida albicans (CAF-2)): fungistatic (an MFC/MIC ratio of greater than four indicates that the compound is fungistatic)
- MFC (Candida albicans (CAF-2)): 5 mg/L
- MIC50 (Candida albicans (CAF-2)): 0.25 mg/L
- Ratio MFC/MIC (Candida albicans (CAF-2)): 20
- Activity (fungicidal/fungistatic) (Candida apicola; Candida apicola): fungistatic (an MFC/MIC ratio of greater than four indicates that the compound is fungistatic)
- Ratio MFC/MIC (Candida apicola; Candida apicola): 5
- MFC (Candida apicola; Starmerella apicola, Candida apicola, read-out: MFC): 1 mg/L
- MIC50 (Candida apicola; Starmerella apicola, Candida apicola, read-out: MIC-50): 0.2 mg/L
- Activity (fungicidal/fungistatic) (Candida glabrata; Candida glabrata): fungistatic (an MFC/MIC ratio of greater than four indicates that the compound is fungistatic)
- Ratio MFC/MIC (Candida glabrata; Candida glabrata): 9
- MFC (Candida glabrata; Nakaseomyces glabratus, Candida glabrata, read-out: MFC): 50 mg/L
- MIC50 (Candida glabrata; Nakaseomyces glabratus, Candida glabrata, read-out: MIC-50): 6.2 mg/L
- Activity (fungicidal/fungistatic) (Candida lusitaniae; Candida lusitaniae): fungistatic (an MFC/MIC ratio of greater than four indicates that the compound is fungistatic)
- Ratio MFC/MIC (Candida lusitaniae; Candida lusitaniae): 8
- MFC (Candida lusitaniae; Clavispora lusitaniae, Candida lusitaniae, read-out: MFC): 25 mg/L
- MIC50 (Candida lusitaniae; Clavispora lusitaniae, Candida lusitaniae, read-out: MIC-50): 3.2 mg/L
- Activity (fungicidal/fungistatic) (Candida tropicalis): fungistatic (an MFC/MIC ratio of greater than four indicates that the compound is fungistatic)
- Ratio MFC/MIC (Candida tropicalis): 5
- MFC (Candida tropicalis; read-out: MFC): 100 mg/L
- MIC50 (Candida tropicalis; read-out: MIC-50): 20 mg/L
- Activity (fungicidal/fungistatic) (Candidia parapsilosis; Candidia parapsilosis): fungistatic (an MFC/MIC ratio of greater than four indicates that the compound is fungistatic)
- Ratio MFC/MIC (Candidia parapsilosis; Candidia parapsilosis): 10
- MFC (Candidia parapsilosis; Candidia parapsilosis, read-out: MFC): 4 mg/L
- MIC50 (Candidia parapsilosis; Candidia parapsilosis, read-out: MIC-50): 0.4 mg/L
- Activity (fungicidal/fungistatic) [1, 3]: fungicidal (An MFC/MIC ratio of less than four indicates that the compound is fungicidal)
- Ratio MFC/MIC [1, 3]: 1
- MFC ([1]; Saccharomyces cerevisiae (YPH501), read-out: MFC): 10 mg/L (≈ 32.7 µM)
- MIC50 ([1]; Saccharomyces cerevisiae (YPH501), read-out: MIC-50): 10 mg/L (≈ 32.7 µM)
- MIC50 ([2]; C. albicans CS#01, first clinical strain): 1.6 mg/L (≈ 5.22 µM)
- MIC50 ([2]; C. albicans CS#02, second clinical strain): 1.6 mg/L (≈ 5.22 µM)
- MIC50 ([2]; Strain #1, fluconazole sensitive Candida albicans strain): 0.8 mg/L (≈ 2.61 µM)
- MIC50 ([2]; Strain #17, fluconazole resistant Candida albicans strain): > 100 mg/L
